BindingDB's records for doi:10.1021/jm00163a033 (University of Massachusetts Medical School, 1990)

How the values were obtained:
[1] = target: Thymidine kinase (Human herpesvirus 2); experiment: Inhibition of TdR phosphorylation using thymidine kinase (TK) assay for herpes simplex virus type 2 (HSV-2).
[2] = target: Thymidine kinase (Human herpesvirus 2); experiment: as above; remark: listed apart in the source

SMILES	IC50 [1] [µM]	Ki [2] [µM]
O=c1[nH]c(NCCCCCO)nc2nc[nH]c12	40	–
O=c1[nH]c(Nc2ccc3ccccc3c2)nc2nc[nH]c12	10	–
O=c1[nH]c(NCc2ccc(Cl)cc2)nc2nc[nH]c12	5.5	–
O=c1[nH]c(Nc2ccc(Br)cc2)nc2nc[nH]c12	0.6	–
O=c1[nH]c(Nc2ccc(F)c(Cl)c2)nc2nc[nH]c12	2.5	–
O=c1[nH]c(Nc2ccc(Br)c(Br)c2)nc2nc[nH]c12	1.3	–
O=c1[nH]c(Nc2cccc(Cl)c2)nc2nc[nH]c12	0.35	–
CCc1cccc(Nc2nc3nc[nH]c3c(=O)[nH]2)c1	4	–
CCCCCCNC1=NC(=O)C2N=CN([C@H]3C[C@H](O)[C@@H](CO)O3)C2=N1 (stereo partly specified)	–	2
O=c1[nH]c(Nc2cccc(C(F)(F)F)c2)nc2nc[nH]c12 [2-(3-Trifluoromethyl-phenylamino)-1,9-dihydro-purin-6-one]	0.1	–
CCCCCCNc1nc2nc[nH]c2c(=O)[nH]1 [2-Hexylamino-1,9-dihydro-purin-6-one]	10	–

The next lines start with the values.

IC50 [1] [µM]	Ki [2] [µM]	SMILES
40	–	O=c1[nH]c(Nc2ccc(C(F)(F)F)cc2)nc2nc[nH]c12
20	–	O=c1[nH]c(Nc2cccc(CO)c2)nc2nc[nH]c12
20	–	O=c1[nH]c(Nc2ccc(O)cc2)nc2nc[nH]c12
6	–	Cc1ccc(Nc2nc3nc[nH]c3c(=O)[nH]2)cc1
2.2	–	O=c1[nH]c(Nc2ccc(F)c(F)c2)nc2nc[nH]c12
